Reference: US8822468B2 (Novartis AG, priority 2008, dated 2014)

biological target: T1, cMET receptor tyrosine kinase (GST-cMET (969-1390)) (Homo sapiens, UniProt P08581); test: EPK cMET profiling assay (LanthaScreen TR-FRET antibody based kinase phosphorylation assay); format: biochemical; settings: purified recombinant GST-cMET (969-1390), 2 μM ATP, 50 nM Fluorescein-PolyEAY, 60 minutes at room temperature; read-out: c-Met IC50
T1 construct: made in house
Method: A number of compounds of the present invention were assayed in an antibody based kinase phosphorylation assay as follows.
EPK cMET Profiling Assay:
The EPK kinase assay for cMET receptor tyrosine kinase was developed, using the purified recombinant GST-fusion protein, containing the cytoplasmic domain of the enzyme. GST-cMET (969-1390) was purified by affinity chromatography.
The kinase assay is based on the LanthaScreen™ technology. LanthaScreen™ is the detection of Time-Resolved Fluorescence Resonance Energy Transfer (TR-FRET) using lanthanide chelates to measure interactions between various binding partners. In a TR-FRET kinase assay, a long-lifetime lanthanide donor species is conjugated to an antibody that specifically binds to a phosphorylated product of a kinase reaction that is labeled with a suitable acceptor fluorophore. This antibody-mediated interaction brings the lanthanide donor and the acceptor into proximity such that resonance energy transfer can take place, resulting in a detectible increase in the FRET signal.
The kinase reactions were performed in 384 well microtiter plates in a total reaction volume of 9.05 μL. The assay plates were prepared with 0.05 μL per well of test compound in the appropriate test concentration, as described under “preparation of compound dilutions”. The reactions were started by combining 4.5 μL of ATP solution with 4.5 μL of enzyme-substrate mix (consisting of kinase and substrate). The final concentrations in the kinase reactions were 35 mM Tris/HCl, 1 mM DTT, 0.025% Tween20, 10 μM sodium orthovanadate, 0.25% BSA, 0.6% DMSO, 10 mM MgCl2, 3 mM MnCl2, 2 μM ATP, 50 nM Fluorescein-PolyEAY, and 0.3 nM enzyme.
The reactions were incubated for 60 minutes at room temperature and stopped by adding 4.5 μL of stop buffer (50 mM EDTA, 0.04% NP40, 20 mM Tris/HCl).
Subsequently 4.5 μL of detection mix (50 mM Tris/HCl, 2 mM DTT, 0.05% Tween20, 20 μM sodium orthovanadate, 1% BSA, 1.72 μg/ml Tb-PY20 antibody) were added to the stopped reactions. After 30 minutes incubation at room temperature, the plates were measured in a BMG Pherastar fluorescence reader. The effect of compound on the enzymatic activity was in all assays obtained from the linear progress curves and determined from one reading (end point measurement).
Test compounds were dissolved in DMSO (10 mM) and transferred into 1.4 mL flat bottom or V-shaped Matrix tubes carrying a unique 2D matrix. The stock solutions were stored at −20° C. if not used immediately. For the test procedure the vials were defrosted and identified by a scanner whereby a working sheet was generated that guided the subsequent working steps.
Compound dilutions were made in 96 well plates. This format enabled the assay of maximally 40 individual test compounds at 8 concentrations (single points) including 4 reference compounds. The dilution protocol included the production of “pre-dilution plates”, “master plates” and “assay plates”.
Pre-dilution plates: 96 polypropylene well plates were used as pre-dilution plates. A total of 4 pre-dilution plates were prepared including 10 test compounds each on the plate positions A1-A10, one standard compound at A11 and one DMSO control at A12. All dilution steps were done on a HamiltonSTAR robot.
Master plates: 100 μL of individual compound dilutions including standard compound and controls of the 4 “pre-dilution plates” were transferred into a 384 “master plate” including the following concentrations 1,820, […], 182, 54.6, 18.2, 5.46, 1.82 and 0.546 μM, respectively in 90% of DMSO.
Assay plates: Identical “assay plates” were then prepared by pipetting 50 nL each of compound dilutions of the “master plates” into 384-well “assay plates” by means of a HummingBird 384-channel dispenser. These plates were used directly for the assay which was performed in a total volume of 9.05 μL. This led to a final compound concentration of 10, 3.0, 1.0, 0.3, 0.1, 0.03, 0.01 and 0.003 μM and a final DMSO concentration of 0.5% in the assay.

T1 sequence (P08581 969-1390): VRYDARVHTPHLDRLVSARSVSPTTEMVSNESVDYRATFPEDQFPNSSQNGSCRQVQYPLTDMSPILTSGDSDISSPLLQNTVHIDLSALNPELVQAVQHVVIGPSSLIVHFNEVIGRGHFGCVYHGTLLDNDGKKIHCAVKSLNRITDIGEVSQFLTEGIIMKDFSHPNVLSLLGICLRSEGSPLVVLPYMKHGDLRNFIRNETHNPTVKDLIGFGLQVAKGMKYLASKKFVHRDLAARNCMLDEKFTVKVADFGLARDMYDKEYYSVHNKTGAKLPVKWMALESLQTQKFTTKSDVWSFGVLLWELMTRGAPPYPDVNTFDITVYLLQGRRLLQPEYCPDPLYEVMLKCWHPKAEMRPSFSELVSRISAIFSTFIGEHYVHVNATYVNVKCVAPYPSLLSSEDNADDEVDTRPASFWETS

Compared with `Cn1cc(-c2ccc3ncc(C(O)c4cc5cccnc5cc4F)n3n2)cn1` (racemic) [Example 248, (rac)-7-Fluoro-quinolin-6-yl)-[6-(1-methyl-1H-pyrazol-4-yl)-imidazo[1,2-b]pyridazin-3-yl]-methanol], `CC(c1cc2cccnc2cc1F)c1cnc2ccc(-c3cnn(C)c3)nn12` (racemic) [Example 253, (rac)-7-Fluoro-6-{1-[6-(1-methyl-1H-pyrazol-4-yl)-imidazo[1,2-b]pyridazin-3-yl]-ethyl}-quinoline] is 28-fold lower in IC50: 0.37 µM for the first, 0.013 µM for the second.

Going from `CCn1cc(-c2ccc3ncc(C(O)c4cc5cccnc5cc4F)n3n2)cn1` (racemic) [Example 249, (rac)-[6-(1-Ethyl-1H-pyrazol-4-yl)-imidazo[1,2-b]pyridazin-3-yl]-(7-fluoro-quinolin-6-yl)methanol] to `CC(c1cc2cccnc2cc1F)c1cnc2ccc(-c3cnn(CCO)c3)nn12` (racemic) [Example 255], the IC50 falls from 0.38 µM to 0.036 µM (11-fold).

Compared with `OC(c1cc2cccnc2cc1F)c1cnc2ccc(-c3cn[nH]c3)nn12` (racemic) [Example 252, (rac)-(7-Fluoro-quinolin-6-yl)-[6-(1H-pyrazol-4-yl)-imidazo[1,2-b]pyridazin-3-yl]-methanol], `CC(c1cc2cccnc2cc1F)c1cnc2ccc(-c3cnn(C4CCNCC4)c3)nn12` (racemic) [Example 258, (rac)-7-Fluoro-6-{1-[6-(1-piperidin-4-yl-1H-pyrazol-4-yl)-imidazo[1,2-b]pyridazin-3-yl]-ethyl}-quinoline] is 6.5-fold lower in IC50: 0.28 µM for the first, 0.043 µM for the second.

`CC(c1cc2cccnc2cc1F)c1cnc2ccc(-c3cnn(C4CCN(C)CC4)c3)nn12` (racemic) [Example 259, (rac)-7-Fluoro-6-(1-{6-[1-(1-methyl-piperidin-4-yl)-1H-pyrazol-4-yl]-imidazo[1,2-b]pyridazin-3-yl}-ethyl)-quinoline] and `CC(c1cc2cnn(C)c2cc1F)c1cnc2ccc(-c3cnn(C)c3)nn12` (racemic) [Example 278, (rac)-3-[1-(6-Fluoro-1-methyl-1H-indazol-5-yl)-ethyl]-6-(1-methyl-1H-pyrazol-4-yl)-imidazo[1,2-b]pyridazine] are within 1.5-fold of each other in IC50: 0.023 µM for the first, 0.021 µM for the second.

Compared with `CNC1CCN(c2ccc3ncc(Cc4cc5cccnc5cc4F)n3n2)C1` (racemic) [Example 260, (rac)-{1-[3-(7-fluoro-quinolin-6-ylmethyl)-imidazo[1,2-b]pyridazin-6-yl]-pyrrolidin-3-yl}-methylamine], `Cn1cc(-c2ccc3ncc(Cc4ccc5ncccc5c4)n3n2)cn1` [Example 2, 6-[6-(1-Methyl-1H-pyrazol-4-yl)-imidazo[1,2-b]pyridazin-3-ylmethyl]-quinoline] is 2.7-fold higher in IC50: 0.0052 µM for the first, 0.014 µM for the second. The first is the more potent here.

Going from `CC(O)(c1c(F)cc2ncccc2c1F)c1cnc2ccc(-c3cnn(CCO)c3)nn12` (racemic) [Example 267, (rac)-1-(5,7-Difluoro-quinolin-6-yl)-1-{6-[1-(2-hydroxy-ethyl)-1H-pyrazol-4-yl]-imidazo[1,2-b]pyridazin-3-yl}-ethanol] to `Cn1cc(-c2ccc3ncc(C(F)(F)c4ccc5ncccc5c4)n3n2)cn1` [Example 6, 6-{Difluoro-[6-(1-methyl-1H-pyrazol-4-yl)-imidazo[1,2-b]pyridazin-3-yl]-methyl}-quinoline], the IC50 falls from 0.26 µM to 0.014 µM (19-fold). The second is the more potent here.

First: CC(c1cc2cnn(C)c2cc1F)c1cnc2ccc(-c3cnn(CCO)c3)nn12 (racemic) [Example 279, (rac)-2-(4-{3-[1-(6-Fluoro-1-methyl-1H-indazol-5-yl)-ethyl]-imidazo[1,2-b]pyridazin-6-yl}-pyrazol-1-yl)-ethanol]
Second: CC(c1ccc2ncc(Br)n2c1)c1cnc2ccc(-c3cnn(CCO)c3)nn12 (racemic) [Example 310, (rac)-2-(4-{3-[1-(3-Bromo-imidazo[1,2-a]pyridin-6-yl)-ethyl]-imidazo[1,2-b]pyridazin-6-yl}-pyrazol-1-yl)-ethanol]
The IC50 of the first is 1.5-fold higher: 0.015 µM for the first, 0.01 µM for the second.

First: CC(c1ccc2nccn2c1)c1cnc2ccc(Cl)nn12 (racemic) [Example 292, (rac)-6-Chloro-3-(1-imidazo[1,2-a]pyridin-6-yl-ethyl)-imidazo[1,2-b]pyridazine]
Second: CC(c1ccc2nccn2c1)c1cnc2ccc(-c3cnn(C)c3)nn12 (racemic) [Example 293, (rac)-3-(1-Imidazo[1,2-a]pyridin-6-yl-ethyl)-6-(1-methyl-1H-pyrazol-4-yl)-imidazo[1,2-b]pyridazine]
The IC50 of the first is 3.5-fold higher: 0.08 µM for the first, 0.023 µM for the second.

Compared with `Cc1cccc(-c2ccc3ncc(C(C)c4ccc5nccn5c4)n3n2)c1` (racemic) [Example 308, (rac)-3-(1-Imidazo[1,2-a]pyridin-6-yl-ethyl)-6-m-tolyl-imidazo[1,2-b]pyridazine], `CC(c1ccc2ncc(Br)n2c1)c1cnc2ccc(-c3cnn(C)c3)nn12` (racemic) [Example 309, (rac)-3-[1-(3-Bromo-imidazo[1,2-a]pyridin-6-yl)-ethyl]-6-(1-methyl-1H-pyrazol-4-yl)imidazo[1,2-b]pyridazine] is 5.1-fold lower in IC50: 0.082 µM for the first, 0.016 µM for the second. The second is the more potent here.

First: COc1ccc(Cc2cnc3ccc(-c4cnn(C)c4)nn23)cc1 [Example 4, 3-(4-methoxy-benzyl)-6-(1-methyl-1H-pyrazol-4-yl)-imidazo[1,2-b]pyridazine]
Second: Cn1cc(-c2ccc3ncc(Cc4ccc(O)cc4)n3n2)cn1 [Example 5, 4-[6-(1-Methyl-1H-pyrazol-4-yl)-imidazo[1,2-b]pyridazin-3-ylmethyl]-phenol]
The IC50 of the first is 5.3-fold higher: 0.28 µM for the first, 0.053 µM for the second. The second is the more potent here.

Compared with `c1cnc2ccc(Cc3cnc4ccc(-c5cnn(C6CCNCC6)c5)nn34)cc2c1` [Example 7, 6-[6-(1-piperidin-4-yl-1H-pyrazol-4-yl)-imidazo[1,2-b]pyridazin-3-ylmethyl]-quinoline], `Cc1ccc(-c2ccc3ncc(Cc4ccc5ncccc5c4)n3n2)cc1` [Example 16, 6-(6-p-Tolyl-imidazo[1,2-b]pyridazin-3-ylmethyl)-quinoline] is 1.9-fold higher in IC50: 0.05 µM for the first, 0.0945 µM for the second. The first is the more potent here.

Going from `Cn1cc(-c2ccc3ncc(Cc4ccc5occc5c4)n3n2)cn1` [Example 8, 3-Benzofuran-5-ylmethyl-6-(1-methyl-1H-pyrazol-4-yl)-imidazo[1,2-b]pyridazine] to `Cc1nc2ccc(Cc3cnc4ccc(-c5cnn(C)c5)nn34)cc2s1` [Example 13, 3-(2-Methyl-benzothiazol-6-ylmethyl)-6-(1-methyl-1H-pyrazol-4-yl)-imidazo[1,2-b]pyridazine], the IC50 falls from 0.27 µM to 0.0735 µM (3.7-fold). The second is the more potent here.

Going from `Cn1cc(-c2ccc3ncc(Cc4ccc5nccn5c4)n3n2)cn1` [Example 10, 3-Imidazo[1,2-a]pyridin-6-ylmethyl-6-(1-methyl-1H-pyrazol-4-yl)-imidazo[1,2-b]pyridazine] to `Cn1cc(-c2ccc3ncc(Cc4ccc5ncsc5c4)n3n2)cn1` [Example 12, 3-Benzothiazol-6-ylmethyl-6-(1-methyl-1H-pyrazol-4-yl)-imidazo[1,2-b]pyridazine], the IC50 rises from 0.0215 µM to 0.0325 µM (1.5-fold). The first is the more potent here.

Compared with `NC(=O)c1ccc(-c2ccc3ncc(Cc4ccc5ncccc5c4)n3n2)cc1Cl` [Example 15, 2-Chloro-4-(3-quinolin-6-ylmethyl-imidazo[1,2-b]pyridazin-6-yl)-benzamide], `c1ccc2cc(-c3ccc4ncc(Cc5ccc6ncccc6c5)n4n3)ccc2c1` [Example 17, 6-(6-Naphthalen-2-yl-imidazo[1,2-b]pyridazin-3-ylmethyl)-quinoline] is 22-fold higher in IC50: 0.0095 µM for the first, 0.21 µM for the second.

In the case of `FC(F)(F)c1cccc(-c2ccc3ncc(Cc4ccc5ncccc5c4)n3n2)c1` [Example 18, 6-[6-(3-Trifluoromethyl-phenyl)-imidazo[1,2-b]pyridazin-3-ylmethyl]-quinoline], the IC50 is reported as 0.0655 µM.
